Results: the supplement of paper PMC13380429

Legend:
Settings in all cases: 72 h
Caco-2 [1] = experiment: cell viability relative to DMSO; higher = less toxic
Calu-3 [2] = experiment: as above
HepG2 [3] = experiment: as above
U2OS [4] = experiment: as above
Vero E6 [5] = experiment: as above
Caco-2 [6] = experiment: relative viability EC50 (midpoint between 100% and the lowest measured viability); higher = less toxic
Calu-3 [7] = experiment: as above
HepG2 [8] = experiment: as above
U2OS [9] = experiment: as above
Vero E6 [10] = experiment: as above
Caco-2 [11] = experiment: drug sensitivity score (DSS) for viability; higher = more toxic; extreme values may be limits of the assay
Calu-3 [12] = experiment: as above
HepG2 [13] = experiment: as above
U2OS [14] = experiment: as above
Vero E6 [15] = experiment: as above

Compound | cell viability (Caco-2 [1]; 1 nM) [%] | cell viability (Caco-2 [1]; 10 nM) [%] | cell viability (Caco-2 [1]; 100 nM) [%] | cell viability (Caco-2 [1]; 1000 nM) [%] | cell viability (Caco-2 [1]; 10000 nM) [%] | cell viability (Calu-3 [2]; 1 nM) [%] | cell viability (Calu-3 [2]; 10 nM) [%] | cell viability (Calu-3 [2]; 100 nM) [%] | cell viability (Calu-3 [2]; 1000 nM) [%] | cell viability (Calu-3 [2]; 10000 nM) [%] | cell viability (HepG2 [3]; 1 nM) [%] | cell viability (HepG2 [3]; 10 nM) [%] | cell viability (HepG2 [3]; 100 nM) [%] | cell viability (HepG2 [3]; 1000 nM) [%] | cell viability (HepG2 [3]; 10000 nM) [%] | cell viability (U2OS [4]; 1 nM) [%] | cell viability (U2OS [4]; 10 nM) [%] | cell viability (U2OS [4]; 100 nM) [%] | cell viability (U2OS [4]; 1000 nM) [%] | cell viability (U2OS [4]; 10000 nM) [%] | cell viability (Vero E6 [5]; 1 nM) [%] | cell viability (Vero E6 [5]; 10 nM) [%] | cell viability (Vero E6 [5]; 100 nM) [%] | cell viability (Vero E6 [5]; 1000 nM) [%] | cell viability (Vero E6 [5]; 10000 nM) [%] | relative viability EC50 (Caco-2 [6]) [µM] | relative viability EC50 (Calu-3 [7]) [µM] | relative viability EC50 (HepG2 [8]) [µM] | relative viability EC50 (U2OS [9]) [µM] | relative viability EC50 (Vero E6 [10]) [µM] | drug sensitivity score (Caco-2 [11]) | drug sensitivity score (Calu-3 [12]) | drug sensitivity score (HepG2 [13]) | drug sensitivity score (U2OS [14]) | drug sensitivity score (Vero E6 [15])
Cc1cc(NC(=O)C2=C(O)c3ccccc3S(=O)(=O)N2C)no1 [isoxicam] | 99.4 | 94.8 | 97.9 | 96.2 | 109 | 113 | 109 | 97.7 | 98.1 | 104 | 101 | 84.5 | 87.3 | 103 | 100 | 95.2 | 101 | 98.4 | 105 | 98.3 | 95.3 | 94.1 | 102 | 102 | 106 | > 10 | > 10 | > 10 | > 10 | > 10 | 0 | 0 | 0 | 0 | 0
CCn1c(=O)c2c(nc(/C=C/c3ccc(OC)c(OC)c3)n2C)n(CC)c1=O [istradefylline] | 97.7 | 89.7 | 104 | 103 | 106 | 87.5 | 93.8 | 94.4 | 101 | 103 | 97.1 | 94.1 | 101 | 98.9 | 112 | 102 | 97.9 | 101 | 104 | 102 | 103 | 97.1 | 93.6 | 96.4 | 104 | > 10 | > 10 | > 10 | > 10 | > 10 | 0 | 0 | 0 | 0 | 0
CN1CCC(=C2c3ccccc3CC(=O)c3sccc32)CC1 [ketotifen] | 110 | 101 | 94.1 | 89.7 | 96.3 | 108 | 93 | 101 | 95.5 | 105 | 98.5 | 96.9 | 112 | 92.9 | 84.9 | 101 | 99.3 | 103 | 96 | 103 | 99.4 | 93.6 | 96.4 | 98.4 | 84.9 | > 10 | > 10 | > 10 | > 10 | > 10 | 0.1 | 0 | 0.8 | 0 | 0.4
CCc1nn(CCO)c(CC)c1Oc1cc(C#N)cc(C#N)c1 [lersivirine] | 109 | 95.8 | 97.9 | 98.8 | 105 | 102 | 99.4 | 107 | 114 | 104 | 92.1 | 110 | 94.7 | 95.9 | 105 | 100 | 97.6 | 95.7 | 102 | 102 | 96.8 | 95.6 | 97.5 | 90.8 | 100 | > 10 | > 10 | > 10 | > 10 | > 10 | 0 | 0 | 0 | 0 | 0
c1ccc2c(c1)Sc1ccccc1N2C[C@H]1CN2CCC1CC2 [levomequitazine] | 99.6 | 106 | 106 | 105 | 82.6 | 105 | 104 | 102 | 108 | 86.3 | 104 | 97.7 | 97.9 | 98.2 | 86.9 | 97.6 | 102 | 97.8 | 101 | 90.4 | 115 | 98.2 | 99.3 | 98.6 | 93.5 | > 10 | > 10 | > 10 | > 10 | > 10 | 0.3 | 0 | 0.2 | 0 | 0
COc1cccc(N(C)C(=S)Oc2ccc3c(c2)CCCC3)n1 [liranaftate] | 97.4 | 97.7 | 96.2 | 109 | 97.5 | 96.9 | 98.4 | 102 | 105 | 97.6 | 105 | 97.7 | 101 | 100 | 110 | 97.2 | 98.3 | 95.5 | 96.6 | 95.8 | 97.2 | 99.4 | 99.6 | 95.2 | 99.3 | > 10 | > 10 | > 10 | > 10 | > 10 | 0 | 0 | 0 | 0 | 0
Cl/C(=C\n1cncn1)c1ccc(Cl)cc1Cl [loreclezole] | 91.1 | 92.8 | 94.6 | 95 | 104 | 100 | 94.7 | 105 | 113 | 97.6 | 96.5 | 98.9 | 104 | 90 | 87.7 | 95.9 | 100 | 96 | 99.7 | 108 | 101 | 102 | 98.8 | 101 | 96.2 | > 10 | > 10 | > 10 | > 10 | > 10 | 0 | 0 | 0.5 | 0 | 0
CC(C)c1ccc2c(c1)CC[C@H]1[C@](C)(CN)CCC[C@]21C [lylamine] | 109 | 103 | 106 | 98.4 | 16.7 | 96 | 98 | 97.8 | 104 | 1.4 | 104 | 109 | 92.3 | 110 | 0 | 103 | 98.5 | 103 | 97.1 | 19.4 | 108 | 108 | 105 | 97.8 | 3.1 | 3.03 | 3.37 | 3.64 | 2.9 | 3.01 | 4.8 | 5.2 | 4.9 | 4.9 | 5.7
Cc1cccc(Nc2ccccc2C(=O)O)c1C [mefenamic-acid] | 97.5 | 101 | 97.1 | 96.4 | 99.3 | 89.9 | 96.4 | 97.7 | 98.9 | 97.6 | 101 | 94.4 | 100 | 97.4 | 91.4 | 106 | 97 | 101 | 97.1 | 101 | 106 | 108 | 100 | 104 | 92 | > 10 | > 10 | > 10 | > 10 | > 10 | 0 | 0 | 0 | 0 | 0
[O-][n+]1cccc(CO)c1 [mepiroxol] | 97.3 | 95.1 | 94.3 | 104 | 103 | 103 | 112 | 99.4 | 109 | 104 | 90.9 | 118 | 104 | 96.3 | 97 | 100 | 99.2 | 104 | 99.2 | 99.2 | 92.1 | 97.9 | 89.3 | 98.9 | 108 | > 10 | > 10 | > 10 | > 10 | > 10 | 0 | 0 | 0 | 0 | 0
CC(=O)/N=c1/sc(S(N)(=O)=O)nn1C [methazolamide] | 110 | 101 | 100 | 94 | 96.7 | 100 | 99.4 | 93.7 | 98.3 | 107 | 101 | 97.6 | 101 | 101 | 102 | 105 | 107 | 104 | 98.3 | 102 | 97 | 99 | 98.2 | 98.4 | 92.7 | > 10 | > 10 | > 10 | > 10 | > 10 | 0 | 0 | 0 | 0 | 0
COc1cccc(OC)c1C(=O)N[C@@H]1C(=O)N2[C@@H]1SC(C)(C)[C@@H]2C(=O)O [methicillin] | 95.2 | 97.2 | 101 | 91.4 | 96.5 | 105 | 99.1 | 97 | 99.1 | 102 | 96 | 96.1 | 87 | 106 | 107 | 105 | 94.7 | 99.6 | 99 | 99.8 | 107 | 98.6 | 94.9 | 102 | 87.9 | > 10 | > 10 | > 10 | > 10 | > 10 | 0 | 0 | 0 | 0 | 0
CC[C@@H](CO)NC(=O)[C@@H]1C=C2c3cccc4[nH]cc(c34)C[C@H]2N(C)C1 [methylergometrine] | 97.6 | 98 | 96.2 | 96.7 | 99.5 | 96.9 | 98.3 | 99.4 | 86.2 | 91.2 | 98.6 | 102 | 97.5 | 110 | 93.6 | 96.2 | 99.1 | 102 | 98.5 | 104 | 106 | 101 | 100 | 102 | 99.8 | > 10 | > 10 | > 10 | > 10 | > 10 | 0 | 1.1 | 0 | 0 | 0
CCN1C[C@]2(COC(=O)c3ccccc3N3C(=O)C[C@H](C)C3=O)CC[C@H](OC)[C@@]34[C@@H]5C[C@H]6[C@H](OC)[C@@H]5[C@](O)(C[C@@H]6OC)[C@](O)([C@@H](OC)[C@H]23)[C@@H]14 [methyllycaconitine] | 108 | 96.1 | 103 | 97 | 98.1 | 97.3 | 102 | 90.3 | 91.1 | 98.6 | 96.3 | 102 | 99.4 | 95.2 | 101 | 97.1 | 94.5 | 95.8 | 96.3 | 94.7 | 104 | 102 | 101 | 102 | 97.8 | > 10 | > 10 | > 10 | > 10 | > 10 | 0 | 0 | 0 | 0 | 0
